Test systems include A498; CAKI-1; DLD-1; DMS-273; EKVX; HL-60; HOP-62; M14; M19-MEL; Malme-3M; OVCAR-5; RXF 393; SK-MEL-5; SNB-19; SNB-75; SW-620; UACC-62; LOX IMVI; NCI-H226; NCI/ADR-RES.
Common to all, as to test: NCI anticancer screen, dose series, 48 h

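Method: 48-hour compound exposure of cells in 96-well plates, five concentrations, linear interpolation of endpoints. GI50: concentration for 50% inhibition of growth.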 The source made the active and inactive calls. Cut-off read from the data, not from the text of the source: active = GI50 up to about 1.1 µM and inactive = higher.

For the compound `Cc1nc2c(c(=O)[nH]1)S/C(=C(/C#N)c1nc3ccccc3[nH]1)N2c1ccccc1`, the GI50 in the assay on A498, in the assay with CAKI-1, in the assay with DLD-1, with DMS-273, in the assay on EKVX and with HL-60 was > 100 µM (inactive) each time. The GI50 in the assay with HOP-62, with M14, in the assay with M19-MEL, in the assay on Malme-3M, in the assay on OVCAR-5 and in the assay on RXF 393 was > 100 µM (inactive) in each case. Besides, the GI50 in the assay with SK-MEL-5, in the assay with SNB-19, in the assay on SNB-75, in the assay on SW-620 and in the assay with UACC-62 was > 100 µM (inactive) in each case.

On to `O=C(CCl)NNC1=Nc2ccc(Cl)cc2SC1`, for which the GI50 in the assay on A498 was 20.6 µM (inactive); with DLD-1, 1.85 µM (inactive); with DMS-273, 2.88 µM (inactive); in the assay on EKVX it was 2.07 µM (inactive); in the assay on HL-60 it was 1.55 µM (inactive); in the assay on HOP-62 it was 17.7 µM (inactive). For the same compound, the GI50 is 1.14 µM (inactive) in the assay with LOX IMVI; 2.18 µM (inactive) with M19-MEL; 1.69 µM (inactive) with Malme-3M; 2.61 µM (inactive) in the assay on NCI-H226; 1.8 µM (inactive) in the assay on NCI/ADR-RES; 2.26 µM (inactive) with OVCAR-5. In addition, the GI50 with RXF 393 is 1.9 µM (inactive); with SK-MEL-5 it was 2.36 µM (inactive); in the assay on SNB-19, 13.5 µM (inactive); with SNB-75, 2.16 µM (inactive); with SW-620 it was 2.04 µM (inactive); in the assay on UACC-62 it was 2.12 µM (inactive).

In the case of `CSc1nc2c(ncn2C2OCC(O)C(O)C2O)c(=O)[nH]1` (stereo unspecified), the GI50 in the assay on A498, with DLD-1, with DMS-273, in the assay with EKVX, with HL-60 and in the assay with HOP-62 was > 100 µM (inactive) each time. Moreover, the GI50 with LOX IMVI, in the assay with M19-MEL, with Malme-3M, in the assay on NCI-H226, in the assay on NCI/ADR-RES and with OVCAR-5 was > 100 µM (inactive) throughout. The GI50 in the assay with RXF 393, in the assay with SK-MEL-5, with SNB-19, in the assay with SNB-75, with SW-620 and with UACC-62 was > 100 µM (inactive) throughout.

`CN/N=C(\C(=O)Nc1ccc(C)c(C)c1)C(C(=O)OC)c1nc2ccc([N+](=O)[O-])cc2nc1O` (stereo unspecified): the GI50 in the assay on A498 was > 100 µM (inactive); in the assay on CAKI-1, > 100 µM (inactive); in the assay on DLD-1, > 100 µM (inactive); in the assay with DMS-273, > 100 µM (inactive); in the assay with EKVX it was 60.5 µM (inactive); in the assay on HL-60 it was 50.9 µM (inactive). In addition, the GI50 in the assay on HOP-62, in the assay with LOX IMVI, with M14, with M19-MEL, with NCI-H226 and in the assay on OVCAR-5 was > 100 µM (inactive) each time. The GI50 is > 100 µM (inactive) in the assay with RXF 393; > 100 µM (inactive) in the assay on SK-MEL-5; > 100 µM (inactive) with SNB-19; > 100 µM (inactive) in the assay on SNB-75; > 100 µM (inactive) with SW-620; 83.8 µM (inactive) in the assay with UACC-62.

`Cc1ccc(NP(=O)(Oc2ccccc2)N(CCCl)CCCl)cc1` (stereo unspecified): the GI50 with A498 was 58.7 µM (inactive); in the assay with CAKI-1, > 100 µM (inactive); in the assay on DLD-1, 23.9 µM (inactive); in the assay on DMS-273, > 100 µM (inactive); in the assay with EKVX it was > 100 µM (inactive); in the assay on HL-60, 44 µM (inactive). The GI50 was > 100 µM (inactive) in the assay on HOP-62; > 100 µM (inactive) in the assay on M14; 28.7 µM (inactive) with M19-MEL; 92.7 µM (inactive) in the assay with Malme-3M; 39.6 µM (inactive) with NCI-H226; 39.3 µM (inactive) with OVCAR-5. In addition, the GI50 in the assay on SK-MEL-5 was 74.5 µM (inactive); in the assay on SNB-75, > 100 µM (inactive); in the assay on SW-620, > 100 µM (inactive); in the assay on UACC-62 it was > 100 µM (inactive).

For `CCCCCn1cc2c3c(cccc31)C1C=C(C)CN(C)[C@@H]1C2.Cc1ccc(C(=O)OC(C(=O)O)C(OC(=O)c2ccc(C)cc2)C(=O)O)cc1` (stereo unspecified), the GI50 in the assay with A498 was 8.83 µM (inactive); in the assay with CAKI-1, 5.69 µM (inactive); with DLD-1 it was 6.12 µM (inactive); with DMS-273, 3.92 µM (inactive); with EKVX, 10.8 µM (inactive); with HL-60, 1.35 µM (inactive). Further, the GI50 is 12.7 µM (inactive) in the assay with HOP-62; 6.47 µM (inactive) with LOX IMVI; 4.48 µM (inactive) in the assay on M19-MEL; 2.56 µM (inactive) with Malme-3M; 9.79 µM (inactive) in the assay with NCI-H226; 6.17 µM (inactive) in the assay with NCI/ADR-RES. Besides, the GI50 is 9.89 µM (inactive) with OVCAR-5; 5.78 µM (inactive) in the assay on RXF 393; 3.06 µM (inactive) in the assay with SK-MEL-5; 10.4 µM (inactive) with SNB-19; 5.42 µM (inactive) in the assay on SNB-75; 4.16 µM (inactive) in the assay with SW-620. Also, in the assay on UACC-62, the GI50 is 5.25 µM (inactive).

With `O=C1OC2(CC1C1(O)C3CC4CC(C3)CC1C4)C1CC3CC(C1)CC2C3` (stereo unspecified), the GI50 is 28.1 µM (inactive) with A498; > 100 µM (inactive) in the assay with DLD-1; > 100 µM (inactive) with DMS-273; > 100 µM (inactive) in the assay with HL-60; 27.9 µM (inactive) in the assay with LOX IMVI; > 100 µM (inactive) in the assay on M14. Besides, the GI50 with M19-MEL was > 100 µM (inactive); in the assay with Malme-3M, 58.3 µM (inactive); in the assay with NCI-H226, > 100 µM (inactive); in the assay on RXF 393 it was > 100 µM (inactive); in the assay with SK-MEL-5, 38.3 µM (inactive); in the assay with SNB-75, 40.8 µM (inactive). The figures for the GI50 with SW-620 and in the assay with UACC-62 were 65.9 µM (inactive) and > 100 µM (inactive), respectively.

In the case of `N#C/C(=C\c1ccncc1)c1csc2ccccc12`, the GI50 with A498 was 21.3 µM (inactive); in the assay with CAKI-1, 27.4 µM (inactive); in the assay on DLD-1, 28.3 µM (inactive); in the assay with DMS-273, 26.3 µM (inactive); in the assay with EKVX, 23.8 µM (inactive); in the assay with HL-60, 15.1 µM (inactive). The GI50 in the assay with HOP-62 was 24.8 µM (inactive); in the assay with LOX IMVI it was 20.4 µM (inactive); with M19-MEL, 31.8 µM (inactive); with Malme-3M, 32.7 µM (inactive); with NCI-H226, 26.4 µM (inactive); with NCI/ADR-RES, 22.1 µM (inactive). The GI50 in the assay with OVCAR-5 is 42.3 µM (inactive); in the assay on RXF 393, 27.7 µM (inactive); with SK-MEL-5, 16.8 µM (inactive); with SNB-19 it was 26 µM (inactive); in the assay on SNB-75, 24.4 µM (inactive); in the assay on SW-620 it was 26.5 µM (inactive). Moreover, the GI50 in the assay with UACC-62 was 22.1 µM (inactive).

On to `Cc1ccc2[nH]c3c(C)c4ccncc4c(C)c3c2c1`, for which the GI50 was 1.5 µM (inactive) in the assay on A498; 0.906 µM (active) in the assay with CAKI-1; 0.333 µM (active) in the assay with DLD-1; 0.155 µM (active) in the assay on DMS-273; 1.47 µM (inactive) with EKVX; 1.22 µM (inactive) in the assay with HL-60. Besides, the GI50 in the assay with HOP-62 is 1.19 µM (inactive); in the assay on LOX IMVI, 0.871 µM (active); in the assay on M14, 1.67 µM (inactive); in the assay with M19-MEL, 1.36 µM (inactive); with Malme-3M it was 1.9 µM (inactive); in the assay on NCI-H226, 1.72 µM (inactive). Further, the GI50 in the assay on NCI/ADR-RES is 0.513 µM (active); in the assay with OVCAR-5, 1.37 µM (inactive); in the assay with RXF 393 it was 0.226 µM (active); in the assay with SK-MEL-5 it was 1.6 µM (inactive); in the assay on SNB-19, 1.24 µM (inactive); in the assay with SNB-75, 1.65 µM (inactive). Besides, the GI50 in the assay on SW-620 is 0.384 µM (active); with UACC-62, 1.62 µM (inactive).

As for `COc1cc(C2C(Cl)C(=O)N2NC(=O)c2ccccc2O)ccc1O` (stereo unspecified), the GI50 with A498 is 45.9 µM (inactive); in the assay on DLD-1, > 100 µM (inactive); with DMS-273, > 100 µM (inactive); in the assay with HL-60 it was > 100 µM (inactive); in the assay with LOX IMVI, > 100 µM (inactive); with M14, > 100 µM (inactive). The GI50 was > 100 µM (inactive) in the assay with M19-MEL; > 100 µM (inactive) in the assay on Malme-3M; > 100 µM (inactive) in the assay with NCI-H226; 0.0612 µM (active) in the assay with RXF 393; > 100 µM (inactive) in the assay with SK-MEL-5; > 100 µM (inactive) with SNB-19. Further, the GI50 in the assay with UACC-62 is > 100 µM (inactive).

Regarding `C/C=C1/C(=O)O[C@]23C=C[C@@H]4C(C(=O)OC)=CO[C@H](O[C@@H]12)[C@@H]43` [PLUMERICIN], the GI50 in the assay on A498 is 0.838 µM (active); in the assay with CAKI-1, 1.14 µM (inactive); with DLD-1, 0.432 µM (active); in the assay on DMS-273 it was 2.32 µM (inactive); with EKVX, 1.3 µM (inactive); in the assay with HL-60, 0.24 µM (active). For the same compound, the GI50 was 6.38 µM (inactive) in the assay on HOP-62; 0.336 µM (active) in the assay with LOX IMVI; 0.726 µM (active) with M19-MEL; 1.93 µM (inactive) with Malme-3M; 2.44 µM (inactive) with NCI-H226; 0.676 µM (active) in the assay on NCI/ADR-RES. Besides, the GI50 with OVCAR-5 is 3.66 µM (inactive); with RXF 393, 0.55 µM (active); in the assay on SK-MEL-5, 2.12 µM (inactive); in the assay on SNB-19 it was 3.56 µM (inactive); in the assay on SNB-75, 3.34 µM (inactive); in the assay with SW-620 it was 0.432 µM (active). Also, the GI50 in the assay on UACC-62 was 0.815 µM (active).

Values taken from ChEMBL document CHEMBL1201862, “PubChem BioAssay data set” (2004).
